What follows are compounds tested against T1, human M1 muscarinic acetylcholine receptors (Homo sapiens, UniProt P11229) (assay: M1 FLIPR assay (PAM, intracellular calcium)). Details: potentiation of EC10-EC30 acetylcholine, values marked a: geometric mean of ≧7 determinations, read-out: M1 PAM Inflection Point (μM) Geometric mean of 2-6 determinations (unless otherwise indicated).
T1 sequence (P11229 1-460): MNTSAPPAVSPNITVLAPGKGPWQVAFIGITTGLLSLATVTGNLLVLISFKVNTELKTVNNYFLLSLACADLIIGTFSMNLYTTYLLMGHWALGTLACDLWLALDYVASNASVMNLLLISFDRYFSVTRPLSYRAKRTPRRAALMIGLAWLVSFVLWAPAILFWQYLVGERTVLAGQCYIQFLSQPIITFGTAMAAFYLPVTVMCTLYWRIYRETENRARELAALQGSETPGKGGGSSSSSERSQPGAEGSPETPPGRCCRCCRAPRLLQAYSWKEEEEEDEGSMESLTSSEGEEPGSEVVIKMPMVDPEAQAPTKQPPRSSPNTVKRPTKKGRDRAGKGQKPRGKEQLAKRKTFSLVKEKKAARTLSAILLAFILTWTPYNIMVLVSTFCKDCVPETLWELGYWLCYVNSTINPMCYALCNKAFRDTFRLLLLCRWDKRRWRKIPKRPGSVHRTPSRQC
Assay type: cell-based
Protocol: This assay was designed to select and characterize compounds that affect the activity of human M1 muscarinic acetylcholine receptors (Similar M1 PAM FLIPR assays can be found, for example, at U.S. Pat. No. 8,664,234). Human M1 receptors were stably expressed in Chinese hamster ovary (CHO) cells (HD Bioscience). The effect of test compounds on intracellular calcium was measured on an FLIPR Tetra (Molecular Devices) using the Fluo-8, AM calcium dye (Molecular Probes) with a red dye quenching agent (Sigma).
CHO cells expressing hM1 cells had been previously cultured and frozen in assay ready vials. Cell vials were thawed, then plated at a density of 10,000 cells per well in a 384 well black wall, clear bottom plate (Greiner #781090) and incubated overnight at 37 degrees C. with 5% CO2. Cells were grown and plated in F12 nutrient media (Gibco BRL #21700-075) supplemented with 10% FBS (Hyclone #CH30160.03) and Pen/Strep (Gibco #15070-063).
After overnight incubation, cell plates were removed from the incubator and the growth media was discarded and replaced with loading solution containing the following: 2 μM Fluo-8-AM (Molecular Probes #F14242), 2 mM Probenecid (Sigma #P8761), lx Acid Red 1 (Sigma #210633), in HBSS buffer containing (grams/L): 0.1 CaCl2, 0.1 MgCl2*6H2O, 0.049 MgSO4, 0.4 KCl, 0.06 KH2PO4, 8.06 NaCl, 0.12 Na2HPO4*12H2O, 1.1 D-glucose*H2O, 0.35 NaHCO3, 4.766 HEPES, pH 7.4. The plate was incubated in the loading solution at 37 degrees C. in the dark for 1 hour.
Test compounds were initially prepared as 100% DMSO stock solutions, then transferred and serially diluted in 384-well compound plates (Greiner #784201). Each compound was tested at 10 concentrations in duplicate per experiment. Positive and negative controls for positive allosteric modulator evaluation were 30 μM acetylcholine (Ach) and an EC10-EC30 concentration of acetylcholine, approximately 2 nM but could be adjusted for each experiment to maintain the EC10-EC30 range.
After the 1-hour dye loading incubation, test compounds were added to the cell plate containing Fluo-8. Approximately 10 minutes after compound addition, an EC10-EC30 concentration of acetylcholine was added to each well and the fluorescence measured to determine the PAM potentiation of the compound.
Data was exported from the FLIPR Tetra as maximum fluorescence/minimum fluorescence for each well. The percent effect for each compound well was determined using the mean values for the positive and negative controls on each plate for each read. Percent effect was 100*(compound negative control)/(positive control negative control). Dose response curves were fitted to the compound percent effect data using a 4-parameter logistic fit model to determine PAM (positive allosteric modulator) Inflection Point values. Compounds with inverted U dose response curves had the concentrations greater than the concentration giving the peak response excluded from the fit. Data was reported as Inflection Point. The compounds of Examples 1-72 had activity according to this assay, generally with an Inflection Point (IP) of 10 μM or less (using Inflection Point as a measure of activity). Such a result is indicative of the intrinsic activity of the compounds of the invention as M1 allosteric modulators.

`Cc1noc(CNC(=O)c2cc(Cc3ccc(-n4cccn4)cc3)c(C)cn2)n1` [Example 31, 5-methyl-N-[(3-methyl-1,2,4-oxadiazol-5-yl)methyl]-4-[4-(1H-pyrazol-1-yl)benzyl]pyridine-2-carboxamide] and `Cc1cnc(C(=O)NCc2ccon2)cc1Cc1ccc(-n2cccn2)cc1` [Example 42, 5-methyl-N-(1,2-oxazol-3-ylmethyl)-4-[4-(1H-pyrazol-1-yl)benzyl]pyridine-2-carboxamide] are within 1.5-fold of each other in EC50: 8.63 µM for the first, 8.13 µM for the second.

First: Cc1cnc(C(=O)NCC2CCOCC2)cc1Cc1ccc(-n2cccn2)cc1 [Example 32, 5-methyl-4-[4-(1H-pyrazol-1-yl)benzyl]-N-(tetrahydro-2H-pyran-4-ylmethyl)pyridine-2-carboxamide]
Second: Cc1cnc(C(=O)NCC2CC2)cc1Cc1ccc(-n2cccn2)cc1 [Example 40, N-(cyclopropylmethyl)-5-methyl-4-[4-(1H-pyrazol-1-yl)benzyl]pyridine-2-carboxamide]
The EC50 of the first is 2.1-fold lower: 4.6 µM for the first, 9.64 µM for the second.

Compared with `O=C(N[C@H]1CCOC[C@@H]1O)c1cc(Cc2ccc(-n3cccn3)cc2)c(OC(F)F)cn1` [Example 62, 5-(difluoromethoxy)-N-[(3R,4S)-3-hydroxytetrahydro-2H-pyran-4-yl]-4-[4-(1H-pyrazol-1-yl)benzyl]pyridine-2-carboxamide], `Cc1cnc(C(=O)N[C@H]2CCOC[C@@H]2O)cc1[C@@H](F)c1ccc(-n2cccn2)cc1` [Example 55, 4-{(S)-Fluoro[4-(1H-pyrazol-1-yl)phenyl]methyl}-N-[(3R,4S)-3-hydroxytetrahydro-2H-pyran-4-yl]-5-methylpyridine-2-carboxamide] is higher in EC50: 0.129 µM for the first, greater than 9.12 µM for the second.

`Cc1cnc(C(=O)NCC2(O)CCC2)cc1Cc1ccc(-n2cccn2)cc1` [Example 44, N-[(1-hydroxycyclobutyl)methyl]-5-methyl-4-[4-(1H-pyrazol-1-yl)benzyl]pyridine-2-carboxamide] and `Cc1cnc(C(=O)NCC2CCCO2)cc1Cc1ccc(-n2cccn2)cc1` (stereo not shown) [Example 35, 5-methyl-4-[4-(1H-pyrazol-1-yl)benzyl]-N-(tetrahydrofuran-2-ylmethyl)pyridine-2-carboxamide] are within 1.5-fold of each other in EC50: 2.7 µM for the first, 2.73 µM for the second.

`Cc1cnc(C(=O)N[C@H]2CCOC[C@@H]2O)cc1Cc1ccc(-c2nccs2)cc1` [Example 3, N-[(3R,4S)-3-Hydroxytetrahydro-2H-pyran-4-yl]-5-methyl-4-[4-(1,3-thiazol-2-yl)benzyl]pyridine-2-carboxamide] and `Cc1cnc(C(=O)N[C@H]2CCOC[C@@H]2O)cc1Cc1ccc(-c2cocn2)cc1` [Example 57, N-[(3R,4S)-3-Hydroxytetrahydro-2H-pyran-4-yl]-5-methyl-4-[4-(1,3-oxazol-4-yl)benzyl]pyridine-2-carboxamide] are within 1.5-fold of each other in EC50: 0.101 µM for the first, 0.144 µM for the second.

Going from `Cc1cnc(C(=O)NC2CCC(F)(F)C2)cc1Cc1ccc(-n2cccn2)cc1` (stereo not shown) [Example 48, N-(3,3-difluorocyclopentyl)-5-methyl-4-[4-(1H-pyrazol-1-yl)benzyl]pyridine-2-carboxamide] to `Cc1cnc(C(=O)NC2CCCCC2(F)F)cc1Cc1ccc(-n2cccn2)cc1` (single isomer, unassigned) [Example 46], the EC50 falls from 3.5 µM to 1.22 µM (2.9-fold). The second is the more potent here.

Going from `Cc1nc(-c2ccc(Cc3cc(C(=O)NC4CCOCC4O)ncc3C)cc2)co1` (single isomer, unassigned; (-)) [Example 10, (−)-N-[(3,4-trans)-3-Hydroxytetrahydro-2H-pyran-4-yl]-5-methyl-4-[4-(2-methyl-1,3-oxazol-4-yl)benzyl]pyridine-2-carboxamide] to `Cc1cnc(C(=O)N[C@H]2CCOC[C@@H]2O)cc1Cc1ccc(-c2cnn(C)c2)nc1` [Example 65, N-[(3R,4S)-3-hydroxytetrahydro-2H-pyran-4-yl]-5-methyl-4-{[6-(1-methyl-1H-pyrazol-4-yl)pyridin-3-yl]methyl}pyridine-2-carboxamide], the EC50 falls from 6.34 µM to 0.18 µM (35-fold).

`Cc1cnc(C(=O)NC2CCCC2O)cc1Cc1ccc(-n2cccn2)cc1` (racemic) [Example 49, N-[cis-2-hydroxycyclopentyl]-5-methyl-4-[4-(1H-pyrazol-1-yl)benzyl]pyridine-2-carboxamide] and `Cc1cnc(C(=O)NC2CCCCC2O)cc1Cc1ccc(-n2cccn2)cc1` (single isomer, unassigned; (+)) [Example 13, (+)-N-[(1,2-cis)-2-Hydroxycyclohexyl]-5-methyl-4-[4-(1H-pyrazol-1-yl)benzyl]pyridine-2-carboxamide] are within 1.5-fold of each other in EC50: 1.63 µM for the first, 1.46 µM for the second.

Compared with `Cc1cnc(C(=O)N[C@H]2C[C@H](CO)C2)cc1Cc1ccc(-n2cccn2)cc1` [Example 26, N-[trans-3-(hydroxymethyl)cyclobutyl]-5-methyl-4-[4-(1H-pyrazol-1-yl)benzyl]pyridine-2-carboxamide], `Cc1cnc(C(=O)N[C@H]2C[C@@](C)(O)C2)cc1Cc1ccc(-n2cccn2)cc1` [Example 30] is 4.5-fold lower in EC50: 5.04 µM for the first, 1.12 µM for the second. The second is the more potent here.

Compared with `Cc1cnc(C(=O)NC2CCCC2O)cc1Cc1ccc(-n2cccn2)cc1` (racemic) [Example 34, N-[trans-2-hydroxycyclopentyl]-5-methyl-4-[4-(1H-pyrazol-1-yl)benzyl]pyridine-2-carboxamide], `CO[C@H]1CCCC[C@@H]1NC(=O)c1cc(Cc2ccc(-n3cccn3)cc2)c(C)cn1` [Example 22, N-[(1S,2S)-2-methoxycyclohexyl]-5-methyl-4-[4-(1H-pyrazol-1-yl)benzyl]pyridine-2-carboxamide] is higher in EC50: 1.02 µM for the first, greater than 5.99 µM for the second.

Compared with `Cc1c[n+]([O-])c(C(=O)N[C@H]2CCOC[C@@H]2O)cc1Cc1ccc(-n2cccn2)cc1` [Example 53, N-[(3R,4S)-3-hydroxytetrahydro-2H-pyran-4-yl]-5-methyl-4-[4-(1H-pyrazol-1-yl)benzyl]pyridine-2-carboxamide 1-oxide], `Cc1nc(C(=O)N[C@H]2CCOC[C@@H]2O)cc(Cc2ccc(-n3cccn3)cc2)c1Cl` [Example 14, 5-Chloro-N-[(3R,4S)-3-hydroxytetrahydro-2H-pyran-4-yl]-6-methyl-4-[4-(1H-pyrazol-1-yl)benzyl]pyridine-2-carboxamide] is 2.3-fold lower in EC50: 0.271 µM for the first, 0.116 µM for the second. The second is the more potent here.

Going from `Cc1cnc(C(=O)N[C@H]2CCCC[C@@H]2O)cc1C(F)c1ccc(-n2cccn2)cc1` (single isomer, unassigned) [Example 64] to `Cc1cnc(C(=O)N[C@@H]2CCCCNC2=O)cc1Cc1ccc(-n2cccn2)cc1` [Example 37, 5-methyl-N-[(3R)-2-oxoazepan-3-yl]-4-[4-(1H-pyrazol-1-yl)benzyl]pyridine-2-carboxamide], the EC50 rises from 0.033 µM to 3.56 µM (110-fold). The first is the more potent here.

`CC[C@@H](CO)NC(=O)c1cc(Cc2ccc(-n3cccn3)cc2)c(C)cn1` [Example 39, N-[(2S)-1-hydroxybutan-2-yl]-5-methyl-4-[4-(1H-pyrazol-1-yl)benzyl]pyridine-2-carboxamide] and `Cc1cnc(C(=O)N[C@H](CO)C(C)C)cc1Cc1ccc(-n2cccn2)cc1` [Example 38, N-[(2S)-1-hydroxy-3-methylbutan-2-yl]-5-methyl-4-[4-(1H-pyrazol-1-yl)benzyl]pyridine-2-carboxamide] are within 1.5-fold of each other in EC50: 4.83 µM for the first, 3.63 µM for the second.

Going from `COc1ccc(Cc2cc(C(=O)N[C@H]3CCCC[C@@H]3O)ncc2C)cc1` [Example 50, N-[(1S,2S)-2-hydroxycyclohexyl]-4-(4-methoxybenzyl)-5-methylpyridine-2-carboxamide] to `Cc1cnc(C(=O)N[C@H]2CCCC[C@@H]2O)cc1C(F)c1ccc(-n2cccn2)cc1` (single isomer, unassigned) [Example 63], the EC50 rises from 3.48 µM to 8.76 µM (2.5-fold).

Source: patent publication US20160016907A1, “PYRIDINE DERIVATIVES AS MUSCARINIC M1 RECEPTOR POSITIVE ALLOSTERIC MODULATORS” (PFIZER INC., priority 2014, published 2016)
